Assay results as given in publication PMC8286840, “Identifying SARS-CoV-2 antiviral compounds by screening for small molecule inhibitors of Nsp3 papain-like protease” (Biochemical Journal, 2021).
Structures can show the parent of a compound that is named as a salt. Where two headings read alike, the source gives them in different places.

Assays:
[1] = molecular target: T1, SARS-CoV-2 PLpro (nsp3 1564–1878) (Severe acute respiratory syndrome coronavirus 2, UniProt P0DTD1); assay: biochemical; set-up: FRET-quenched peptide (Pro3) cleavage by PLpro, 10 min pre-incubation, slope over 20 min, normalised to no-compound control; conditions: high concentration screen, read-out: % of control remaining
[2] = molecular target: T1, SARS-CoV-2 PLpro (nsp3 1564–1878); assay: biochemical; set-up: FRET-quenched peptide (Pro3) cleavage by PLpro, 10 min pre-incubation, slope over 20 min, normalised to no-compound control; conditions: low concentration screen, read-out: % of control remaining

CCCCCCCC/C=C/CCCCCCCC(=O)OC[C@H]1O[C@@H](n2ccc(N)nc2=O)[C@@H](O)[C@@H]1O [Elacytarabine]
remaining activity at 3.75 µM ([1]; Well no.=7716): 110% | remaining activity at 1.25 µM ([2]; Well no.=7716): 105%

Cc1cc(C)nc(NS(=O)(=O)c2ccc(N)cc2)n1 [Sulfamethazine]
remaining activity at 3.75 µM ([1]; Well no.=4940): 95.8% | remaining activity at 3.75 µM ([1]; Well no.=7456): 99.2% | remaining activity at 1.25 µM ([2]; Well no.=4940): 96.7% | remaining activity at 1.25 µM ([2]; Well no.=7456): 99.7%

CCOC(=O)N1CCC(=C2c3ccc(Cl)cc3CCc3cccnc32)CC1 [Loratadine]
remaining activity at 3.75 µM ([1]; Well no.=933): 98.6% | remaining activity at 3.75 µM ([1]; Well no.=2274): 89.3% | remaining activity at 3.75 µM ([1]; Well no.=7337): 102% | remaining activity at 1.25 µM ([2]; Well no.=933): 96.2% | remaining activity at 1.25 µM ([2]; Well no.=2274): 89.1% | remaining activity at 1.25 µM ([2]; Well no.=7337): 98.6%

C[C@H](CCC(=O)NCC(=O)O)[C@H]1CC[C@H]2[C@@H]3[C@H](O)C[C@@H]4C[C@H](O)CC[C@]4(C)[C@H]3CC[C@]12C [Glycochenodeoxycholic acid]
remaining activity at 3.75 µM ([1]; Well no.=7020): 102% | remaining activity at 1.25 µM ([2]; Well no.=7020): 105% | remaining activity at 1.25 µM ([2]; Well no.=7257): 103%

COC1=CC(=O)O[C@@H](CCc2ccc3c(c2)OCO3)C1 [Dihydromethysticin]
remaining activity at 3.75 µM ([1]; Well no.=3303): 102% | remaining activity at 1.25 µM ([2]; Well no.=3303): 100%

CCCCC1=NC2(CCCC2)C(=O)N1Cc1ccc(-c2ccccc2-c2nnn[nH]2)cc1 [Irbesartan]
remaining activity at 3.75 µM ([1]; Well no.=8251): 105% | remaining activity at 1.25 µM ([2]; Well no.=8251): 105%

C[C@@H](NCCc1ccc(O)cc1)[C@@H](O)c1ccc(O)cc1 (racemic) [Ritodrine hydrochloride]
remaining activity at 3.75 µM ([1]; Well no.=1156): 103% | remaining activity at 1.25 µM ([2]; Well no.=1156): 97.7%

C[C@]12CC[C@@H]3c4ccc(O)cc4C[C@@H](CCCCCCCCC[S+]([O-])CCCC(F)(F)C(F)(F)F)[C@H]3[C@@H]1CC[C@@H]2O (some centres unmarked) [Fulvestrant]
remaining activity at 3.75 µM ([1]; Well no.=2254): 96.8% | remaining activity at 1.25 µM ([2]; Well no.=2254): 97.2%

O=C(O)COCCN1CCN(C(c2ccccc2)c2ccc(Cl)cc2)CC1 (centres unmarked) [Cetirizine (dihydrochloride)]
remaining activity at 3.75 µM ([1]; Well no.=7325): 103% | remaining activity at 1.25 µM ([2]; Well no.=7325): 104%

CN1CCCC1c1cccnc1 (single isomer, unassigned; (-)) [(-)-Nicotine hydrogen tartrate salt]
remaining activity at 3.75 µM ([1]; Well no.=809): 92.5% | remaining activity at 1.25 µM ([2]; Well no.=809): 95.3%

CCS(=O)(=O)CCn1c([N+](=O)[O-])cnc1C [Tinidazole]
remaining activity at 3.75 µM ([1]; Well no.=1958): 94.1% | remaining activity at 1.25 µM ([2]; Well no.=1958): 93%

Nc1ncnc2c1ncn2[C@@H]1O[C@@H]2CO[P@@](=O)(O)O[C@H]3[C@@H](O)[C@H](n4cnc5c(N)ncnc54)O[C@@H]3CO[P@@](=O)(O)O[C@H]2[C@H]1O [c-di-AMP]
remaining activity at 3.75 µM ([1]; Well no.=7914): 90.2% | remaining activity at 3.75 µM ([1]; Well no.=8703): 102% | remaining activity at 1.25 µM ([2]; Well no.=7914): 91.4% | remaining activity at 1.25 µM ([2]; Well no.=8703): 104%

CC(=O)Nc1nnc(S(N)(=O)=O)s1 [Acetazolamide]
remaining activity at 3.75 µM ([1]; Well no.=163): 103% | remaining activity at 1.25 µM ([2]; Well no.=163): 101%

CCN(CC)CCCCN1c2ccccc2Oc2ccc(Cl)cc21 [10-[4'-(N,N-Diethylamino)butyl]-2-chlorophenoxazine hydrochloride]
remaining activity at 3.75 µM ([1]; Well no.=2574): 101% | remaining activity at 1.25 µM ([2]; Well no.=2574): 97.3%

CCn1nc(C)cc1C(=O)Nc1nc2cc(C(N)=O)cc(OC)c2n1C/C=C/Cn1c(NC(=O)c2cc(C)nn2CC)nc2cc(C(N)=O)cc(OCCCN3CCOCC3)c21 [diABZI STING agonist-1 (trihydrochloride)]
remaining activity at 3.75 µM ([1]; Well no.=8553): 102% | remaining activity at 1.25 µM ([2]; Well no.=8553): 110%

O=S(=O)(O)Oc1ccc(C(c2ccc(OS(=O)(=O)O)cc2)c2ccccn2)cc1 [Sodium Picosulfate]
remaining activity at 3.75 µM ([1]; Well no.=4654): 99.8% | remaining activity at 1.25 µM ([2]; Well no.=4654): 103%

CC(N)=NCc1cccc(CN)c1 [1400W dihydrochloride]
remaining activity at 3.75 µM ([1]; Well no.=1434): 90.8% | remaining activity at 1.25 µM ([2]; Well no.=1434): 88%

C[C@@H](Oc1cc(NS(=O)(=O)N2CCC2)nc(SCc2cccc(F)c2F)n1)[C@@H](O)CO [AZD-5069]
remaining activity at 3.75 µM ([1]; Well no.=8409): 101% | remaining activity at 1.25 µM ([2]; Well no.=8409): 102%

Nc1nc(F)nc2c1ncn2[C@@H]1O[C@H](CO)[C@@H](O)[C@@H]1O [Fludarabine (Fludara)]
remaining activity at 3.75 µM ([1]; Well no.=5249): 99.9% | remaining activity at 1.25 µM ([2]; Well no.=5249): 98.3%

CCN1CCCC1CNC(=O)c1cc(S(N)(=O)=O)ccc1OC (racemic)
remaining activity at 3.75 µM ([1]; Well no.=1174): 106% | remaining activity at 1.25 µM ([2]; Well no.=1174): 105%

CCc1cccc(N(C)C(=N)Nc2cccc3ccccc23)c1 [CNS-1102]
remaining activity at 3.75 µM ([1]; Well no.=366): 100% | remaining activity at 1.25 µM ([2]; Well no.=366): 99.2%

CN1C(=O)C(Cc2c[nH]c3ccccc23)NC1=S (centres unmarked) [Necrostatin-1]
remaining activity at 3.75 µM ([1]; Well no.=2493): 98.6% | remaining activity at 3.75 µM ([1]; Well no.=6196): 92.5% | remaining activity at 3.75 µM ([1]; Well no.=8505): 104% | remaining activity at 1.25 µM ([2]; Well no.=2493): 95.6% | remaining activity at 1.25 µM ([2]; Well no.=6196): 92.6% | remaining activity at 1.25 µM ([2]; Well no.=8505): 109%

C/C(=C\c1csc(C)n1)[C@@H]1C[C@@H]2O[C@@H]2CCC[C@H](C)[C@H](O)[C@@H](C)C(=O)C(C)(C)[C@@H](O)CC(=O)O1 [Epothilone A]
remaining activity at 3.75 µM ([1]; Well no.=5157): 93.4% | remaining activity at 1.25 µM ([2]; Well no.=5157): 95.3%

O=C(O)c1cc(/N=N/c2ccc(O)c(C(=O)O)c2)ccc1O [Olsalazine Sodium]
remaining activity at 3.75 µM ([1]; Well no.=4688): 97.9% | remaining activity at 1.25 µM ([2]; Well no.=4688): 101%

Cc1cccc(C(C)c2c[nH]cn2)c1C (centres unmarked) [Medetomidine HCl]
remaining activity at 3.75 µM ([1]; Well no.=4927): 100% | remaining activity at 1.25 µM ([2]; Well no.=4927): 99.2%

CC(C[N+](C)(C)C)OC(N)=O (centres unmarked) [Bethanechol (chloride)]
remaining activity at 3.75 µM ([1]; Well no.=7565): 92.1% | remaining activity at 1.25 µM ([2]; Well no.=7565): 99.8%

CCCN(CCC)CCc1cccc2c1CC(=O)N2 [Ropinirole hydrochloride]
remaining activity at 3.75 µM ([1]; Well no.=1444): 97.7% | remaining activity at 1.25 µM ([2]; Well no.=1444): 93.6%

CC(C)Cn1cnc2c(N)nc3ccccc3c21 [Imiquimod]
remaining activity at 3.75 µM ([1]; Well no.=2222): 94.3% | remaining activity at 3.75 µM ([1]; Well no.=8069): 108% | remaining activity at 1.25 µM ([2]; Well no.=2222): 94% | remaining activity at 1.25 µM ([2]; Well no.=8069): 109%

CN(C)N(C)C(=O)[C@@]1(Cc2ccccc2)CCCN(C(=O)[C@@H](Cc2c[nH]c3ccccc23)NC(=O)C(C)(C)N)C1 [Anamorelin]
remaining activity at 3.75 µM ([1]; Well no.=8437): 96.9% | remaining activity at 1.25 µM ([2]; Well no.=8437): 97.3%

CC(=O)NCCc1c[nH]c2ccccc12 [N-Acetyltryptamine]
remaining activity at 3.75 µM ([1]; Well no.=100): 96.6% | remaining activity at 1.25 µM ([2]; Well no.=100): 97.2%

COc1ccc(-c2cc(=O)c3c(O)cc(O)cc3o2)cc1O [Diosmetine]
remaining activity at 3.75 µM ([1]; Well no.=3573): 97.7% | remaining activity at 1.25 µM ([2]; Well no.=3573): 97.4%
